Data set [1] concerns Plasmodium falciparum blood forms (W2 clone, chloroquine-resistant). The data set can be described thus: in vitro antiplasmodial activity, anti-histidine-rich protein II assay. The data set is classed as cell-based. Here is the method:
Continuous culture of P. falciparum and in vitro tests of drug activity - Blood-stage P. falciparum parasites, W2 clone CQ-resistant ([Oduola et al. 1988]), maintained according to [Trager & Jensen (1976)], were used in the drug activity tests after sorbitol-synchronisation ([Lambros & Vanderberg 1979)]. The antiplasmodial activity of the compounds was determined relative to control parasites kept in culture medium only ([Rieckmann et al. 1978)] through the anti-histidine-rich protein II assay ([Noedl et al. 2002)]. The IC50 of parasite growth was determined through sigmoidal dose-response curves built by curve-fitting software (Microcal Origin Software v.5.0). […]

The test system of data set [2] is HepG2 human hepatoma cells. Here is the method:
The SI was calculated in order to give an insight into the therapeutic index of the molecules, i.e., how far the toxic concentration is from the therapeutic one.

Data set [3] in a line: octanol/water partition coefficient (log P o/w) by HPLC. The data set is classed as physicochemical. Conditions: determined for the first time in this paper. An excerpt:
Measurement of lipophilicity data - Measurements of the octanol/water partition coefficient (log P o/w) were made by the HPLC technique according to a method described previously ([Minick et al. 1988], [Pomper et al. 1990]). Measurement of the chromatographic capacity factors (k) for each molecule was done at various concentrations in the range of 95-75% methanol containing 0.25% (v/v) 1-octanol, and an aqueous phase consisting of 0.15% (v/v) n-decylamine in the buffering agent 3-morpholinopropane-1-sulfonic acid (MOPS) prepared in 1-octanol saturated water adjusted to pH 7.4. These capacity factors (k’) are extrapolated to 100% of the aqueous component given the value of k’. The logP o/w is obtained by the formula logP o/w = 0.13418 + 0.98452 logk’.

The mark [4] stands for this setting: P. falciparum W2 clone, CQ-resistant, blood-stage, anti-HRPII assay, read-out: IC50 Pf.

Where two headings read alike, the source gives them in different places.

By IC50 is commonly meant the midpoint of a concentration-inhibition curve. For the compound `CCN(CC)CCCC(C)Nc1ccnc2cc(Cl)ccc12` (stereo not shown) [CQ, chloroquine, reference compound], the half-inhibitory concentration (IC50) in data set [1] (Plasmodium falciparum, W2, read-out: IC50 Pf) was 0.1 ± 0.02 µM.
One may read the log P as the decadic logarithm of the partition coefficient of the neutral form, usually between octanol and water. Regarding “1-[(4-(3-dimethylaminopropoxy)phenyl-phenyl)methylidene][3]ferrocenophane [Compound 8]”, in data set [1] (setting [4]), the IC50 was found to be 5.9 ± 1.6 µM. In data set [2], the “cytotoxicity class (by MLD50)” value is recorded as “toxic (those having MLD50< 100 mM were considered toxic)”. In addition, the “log P” value in data set [3] came out at 3.46.
Take `CCC(=C(c1ccccc1)c1ccccc1)c1ccccc1` [Compound 1]: in data set [1] (P. falciparum W2, class based on IC50), the antiplasmodial activity class entry is “inactive”. The IC50 in data set [1] (setting [4]) was 83 ± 5 µM; in data set [1] (Plasmodium falciparum, W2, P. falciparum W2 clone, CQ-resistant, blood-stage, anti-HRPII assay, read-out: IC50 Pf), greater than 60 µM.

The record behind these values is paper PMC4708017, “Antiplasmodial activity of iron(II) and ruthenium(II) organometallic complexes against Plasmodium falciparum blood parasites” (Memórias do Instituto Oswaldo Cruz, 2015).
